According to US12077503B2, “Substituted cyclic amides and their use as herbicides” (FMC CORPORATION, priority 2015, dated 2024):

Experiments:
Format in all cases: in vivo
Kochia (Kochia scoparia) [1] = assay: Test A preemergence; conditions: Bassia scoparia, pre-emergence, 240 h
In short: (§1)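 Ratings of 0 (no effect) to 100 (complete control) come from visual comparison with untreated controls roughly 10 d after treatment. Test chemicals, formulated in a non-phytotoxic solvent mixture with surfactant, were applied either as a preemergence directed soil spray on seeded soil or postemergence to one- to two-leaf plants 2 to 10 cm tall.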

[2] = test system: barnyardgrass (Echinochloa crus-galli); assay: Test A preemergence; conditions: Echinochloa crus-galli, pre-emergence, 240 h
In short: as §1

[3] = test system: pigweed (Amaranthus retroflexus); assay: Test A preemergence; conditions: Amaranthus retroflexus, pre-emergence, 240 h
[4] = test system: ragweed (common ragweed, Ambrosia elatior); assay: Test A preemergence; conditions: Ambrosia artemisiifolia, pre-emergence, 240 h
In short: as §1

[5] = test system: ryegrass, Italian (Italian ryegrass, Lolium multiflorum); assay: Test A preemergence; conditions: Lolium multiflorum, pre-emergence, 240 h
In short: as §1

[6] = test system: Galium (catchweed bedstraw, Galium aparine); assay: Test A postemergence; conditions: Galium, post-emergence, 240 h, 125 g ai/ha, postemergence, visual injury rating after approximately 10 d; read-out: Galium plant response rating (0 to 100 scale, 0 no effect, 100 complete control)
In short: as §1

Kochia (Kochia scoparia) [7] = assay: Test A postemergence; conditions: Bassia scoparia, post-emergence, 240 h, 125 g ai/ha, postemergence, visual injury rating after approximately 10 d; read-out: Kochia plant response rating (0 to 100 scale, 0 no effect, 100 complete control)
In short: as §1

[8] = test system: barnyardgrass (Echinochloa crus-galli); assay: Test A postemergence; conditions: Echinochloa crus-galli, post-emergence, 240 h, 125 g ai/ha, postemergence, visual injury rating after approximately 10 d; read-out: Barnyardgrass plant response rating (0 to 100 scale, 0 no effect, 100 complete control)
In short: as §1

[9] = test system: blackgrass (Alopecurus myosuroides); assay: Test A postemergence; conditions: Alopecurus myosuroides, post-emergence, 240 h, 125 g ai/ha, postemergence, visual injury rating after approximately 10 d; read-out: Blackgrass plant response rating (0 to 100 scale, 0 no effect, 100 complete control)
In short: as §1

corn (Zea mays) = assay: Test A postemergence; conditions: Zea mays, post-emergence, 240 h, 125 g ai/ha, postemergence, visual injury rating after approximately 10 d; read-out: Corn plant response rating (0 to 100 scale, 0 no effect, 100 complete control)
In short: as §1

[10] = test system: giant foxtail (Setaria faberii); assay: Test A postemergence; conditions: Setaria faberi, post-emergence, 240 h, 125 g ai/ha, postemergence, visual injury rating after approximately 10 d; read-out: Foxtail, Giant plant response rating (0 to 100 scale, 0 no effect, 100 complete control)
In short: as §1

[11] = test system: pigweed (Amaranthus retroflexus); assay: Test A postemergence; conditions: Amaranthus retroflexus, post-emergence, 240 h, 125 g ai/ha, postemergence, visual injury rating after approximately 10 d; read-out: Pigweed plant response rating (0 to 100 scale, 0 no effect, 100 complete control)
In short: as §1

[12] = test system: ragweed (common ragweed, Ambrosia elatior); assay: Test A postemergence; conditions: Ambrosia artemisiifolia, post-emergence, 240 h, 125 g ai/ha, postemergence, visual injury rating after approximately 10 d; read-out: Ragweed plant response rating (0 to 100 scale, 0 no effect, 100 complete control)
In short: as §1

[13] = test system: ryegrass, Italian (Italian ryegrass, Lolium multiflorum); assay: Test A postemergence; conditions: Lolium multiflorum, post-emergence, 240 h, 125 g ai/ha, postemergence, visual injury rating after approximately 10 d; read-out: Ryegrass, Italian plant response rating (0 to 100 scale, 0 no effect, 100 complete control)
In short: as §1

[14] = test system: wheat (Triticum aestivum); assay: Test A postemergence; conditions: Triticum aestivum, post-emergence, 240 h, 125 g ai/ha, postemergence, visual injury rating after approximately 10 d; read-out: Wheat plant response rating (0 to 100 scale, 0 no effect, 100 complete control)
In short: as §1

How did the pest or weed control at 125 g/ha (Kochia (Kochia scoparia) [1]; 125 g ai/ha, preemergence, 0 to 100 scale where 0 is no effect and 100 is complete control, read-out: Kochia plant response rating) turn out when `CN1C[C@H](c2cc(F)c(F)c(F)c2)[C@@H](C(=O)Nc2ccccc2S(C)(=O)=O)C1=O` [Compound 880] was run?
Its pest or weed control at 125 g/ha is 70%.

And the pest or weed control at 500 g/ha (Kochia (Kochia scoparia) [1]; 500 g ai/ha, Preemergence, visual injury vs untreated controls after approximately 10 d, read-out: Kochia plant response rating (0 to 100 scale where 0 is no effect and 100 is complete control))?
The pest or weed control at 500 g/ha was 90%.

What about the pest or weed control at 125 g/ha ([2]; 125 g ai/ha, preemergence, 0 to 100 scale where 0 is no effect and 100 is complete control, read-out: Barnyardgrass plant response rating) of the same molecule?
Its pest or weed control at 125 g/ha is 90%.

What about the pest or weed control at 500 g/ha ([2]; 500 g ai/ha, Preemergence, visual injury vs untreated controls after approximately 10 d, read-out: Barnyardgrass plant response rating (0 to 100 scale where 0 is no effect and 100 is complete control)) of the same molecule?
The pest or weed control at 500 g/ha was 100%.

And the pest or weed control at 125 g/ha ([3]; 125 g ai/ha, preemergence, 0 to 100 scale where 0 is no effect and 100 is complete control, read-out: Pigweed plant response rating)?
The pest or weed control at 125 g/ha was 70%.

What about the pest or weed control at 500 g/ha ([3]; 500 g ai/ha, Preemergence, visual injury vs untreated controls after approximately 10 d, read-out: Pigweed plant response rating (0 to 100 scale where 0 is no effect and 100 is complete control)) of the same molecule?
The pest or weed control at 500 g/ha was 90%.

And the pest or weed control at 125 g/ha ([4]; 125 g ai/ha, preemergence, 0 to 100 scale where 0 is no effect and 100 is complete control, read-out: Ragweed plant response rating)?
The pest or weed control at 125 g/ha was 50%.

What about the pest or weed control at 500 g/ha ([4]; 500 g ai/ha, Preemergence, visual injury vs untreated controls after approximately 10 d, read-out: Ragweed plant response rating (0 to 100 scale where 0 is no effect and 100 is complete control)) of the same molecule?
The pest or weed control at 500 g/ha was 80%.

And the pest or weed control at 125 g/ha ([5]; 125 g ai/ha, preemergence, 0 to 100 scale where 0 is no effect and 100 is complete control, read-out: Ryegrass, Italian plant response rating)?
The pest or weed control at 125 g/ha was 20%.

And the pest or weed control at 500 g/ha ([5]; 500 g ai/ha, Preemergence, visual injury vs untreated controls after approximately 10 d, read-out: Ryegrass, Italian plant response rating (0 to 100 scale where 0 is no effect and 100 is complete control))?
The pest or weed control at 500 g/ha was 70%.

What about the pest or weed control at 125 g/ha [6] of the same molecule?
The pest or weed control at 125 g/ha was 60%.

And the pest or weed control at 125 g/ha (Kochia (Kochia scoparia) [7])?
Its pest or weed control at 125 g/ha is 20%.

And the pest or weed control at 125 g/ha [8]?
Its pest or weed control at 125 g/ha is 90%.

What about the pest or weed control at 125 g/ha [9] of the same molecule?
Its pest or weed control at 125 g/ha is 0%.

And the plant injury at 125 g/ha (corn (Zea mays))?
Its plant injury at 125 g/ha is 20%.

And the pest or weed control at 125 g/ha [10]?
The pest or weed control at 125 g/ha was 80%.

And the pest or weed control at 125 g/ha [11]?
The pest or weed control at 125 g/ha was 50%.

And the pest or weed control at 125 g/ha [12]?
Its pest or weed control at 125 g/ha is 40%.

What about the pest or weed control at 125 g/ha [13] of the same molecule?
The pest or weed control at 125 g/ha was 50%.

And the plant injury at 125 g/ha [14]?
Its plant injury at 125 g/ha is 40%.
